Laboratory results published in US9388215B2, “Compositions and methods of using islet neogenesis peptides and analogs thereof” (SHENZHEN HIGHTIDE BIOPHARMACEUTICAL, LTD., priority 2013, dated 2016).

How the values were obtained:
normal C57BL/6J mice = experiment: Induction of small β-cell clusters in normal C57BL/6J mice (islet size distribution); format: in vivo, mouse
Description: After a 1-week acclimation, C57BL/6J female mice were randomly divided into 4 groups. The two control groups received either 10 mL/kg sterile normal saline (n=4) or scrambled peptide (Peptide 3, 25 mg/kg) (n=5) via subcutaneous injection for 10 days. The other two groups received INGAP-PP (Peptide 1) or INGAP-PP analog Peptide 7 at a dose of 25 mg/kg per day respectively (n=7 per group) for the same period. Body weight and 6 hour fasting blood glucose were measured before treatment and after the last dosing of treatment. Plasma and pancreatic insulin were also measured at the end of the study. On day 11, the pancreas was removed from each animal, cleared of fat and lymph nodes, weighed, and fixed in 10% neutral buffered formalin (NBF) for no longer than 24 hours before processing for morphometric analysis.
Immunohistochemistry analysis was used to determine pancreatic islet size distribution.

[1] = system: STZ induced diabetic mice; experiment: Efficacy in streptozotocin (STZ) induced diabetic mice model; format: in vivo, mouse
Description: After acclimatization in the animal facility for one week, 6-8 weeks old C57BL/6J mice were administered low dose STZ at 40 mg/kg in citrate buffer for 5 consecutive days to establish a T1D animal model. Mice with blood glucose greater than 16.7 mmol/L at 5 days post last STZ injection were included in the study. These mice were then treated with INGAP-PP (Peptide 1) or Peptide 7 at the doses of 5 mg/kg (2.5 mg/kg, bid (twice a day)) or 25 mg/kg (12.5 mg/kg, bid) for 20 days before sacrifices. Two additional groups of diabetic mice were administered either saline or a peptide (Peptide 3) composed of a scrambled sequence of amino acids from Peptide 1 as control groups. Blood glucose and insulin levels were measured, and 20 days post the last dosing of test agents, an oral glucose tolerance test (OGTT) was performed in 6 hour fasted animals to determine the effect of Peptide 1 and Peptide 7. Blood samples obtained from the tail cut for glucose determination were detected with an ACCU-CHEK™ glucometer (Roche, ACCU-CHEK® Active), and insulin levels were determined with Rat/Mouse Insulin Elisa kit (Millipore, Billerica, Mass. USA). For the OGTT, after the measurement of the basal glucose concentration (T=−30 min), mice received an oral glucose challenge at 2 g/kg and glucose values were determined by glucometer at 0, 15, 30, 60, 90 and 120 min.

[2] = Peptide stability in culture medium (F-12K, 37° C., HPLC); format: physicochemical; conditions: F-12K medium, 0.25 mg/mL, 0-72 hours, FIG. 2, FIG. 11
Description: To determine the stability of peptides in culture medium, a certain amount of selected peptides was accurately weighed and dissolved in distilled water to 5 mg/mL as a stock solution. The stock solution was diluted to 0.25 mg/mL with F-12K medium (Gibco-BRL, Gaithersburg, Md., USA) as working solution. A volume of 100 μL of each working solution was transferred into individual sample vials. The sample vials were incubated in a 37° C. incubator for 0, 24, 48 and 72 hours before being analyzed and quantitated by HPLC. […]

ARIP cells = experiment: ARIP cell proliferation (BrdU ELISA / CellTiter-Glo); format: cell-based, rat; conditions: 100 nM peptide; compared to INGAP scrambled peptide and INGAP-PP; FIG. 1
Description: To measure cell proliferation, a bromodeoxyuridine (BrdU) ELISA assay was performed. Briefly, ARIP cells (ATCC (American Type Culture Collection), Manassas Va. USA), a rat pancreatic ductal cell line, were cultured in F-12K medium (Gibco-BRL, Gaithersburg, Md., USA) containing 10% fetal bovine serum (FBS; HyClone, Thermo Fisher Scientific Inc.; Waltham Mass. USA), 100 μg/ml streptomycin and 100 μg/ml penicillin in a cell incubator. ARIP cells were seeded into 96-well culture plates at 8000 or 0 (as blank control) cells/well in a volume of 50 μl cell culture medium and incubated overnight for the following experiments. On the second day, after replacing the medium with medium without serum, 50 μl serum-free cell culture medium containing test peptides at a series concentrations (final concentrations were 10 μM, 5 μM, 1 μM, 500 nM, 100 nM, 50 nM, 10 nM and 1 nM) were added to seeded cells. Medium without compound was added to negative control and background control wells. […] The absorbance at 450 nm (reference wavelength 690 nm) on an EnVision™ plate reader (Perkin Elmer, Boston Mass.) within 5 min after adding the stop solution was measured.
To test for cell viability, a CellTiter-Glo™ (CTG) assay (Promega, Madison Wis.) was performed. […] Luminescence signal was quantified on an EnVision™ plate reader after a 10 minute incubation at room temperature.

## H-IGLHDPSHGTLPAGS-OH [Peptide 7, H-IGLHDPSHGTLPAGS-OH]
Normal C57BL/6J mice; normal female C57BL/6J mice, 25 mg/kg per day, 10 days, versus naive/control group, FIG. 7
  number of islets, islet size (Log [μm^2]) ranging from 2.1 to 0.7: numbers increased significantly
Normal C57BL/6J mice; normal mice, 25 mg/kg per day sc for 10 days, compared to saline group
  effect on body weight, blood glucose, plasma insulin, pancreas insulin, pancreas weight: did not affect body weight, blood glucose, plasma insulin, pancreas insulin, or pancreas weight
[1]; 5 mg/kg or 25 mg/kg for 20 days
  effect on body weight or pancreas weight: did not affect body weight or pancreas weight
[1]; 25 mg/kg dose group, end of the 20-day period, FIG. 6B
  plasma insulin levels vs saline controls: significantly different from saline controls and almost restored to the level of the naive group
[1]; FIG. 6C
  glucose tolerance (OGTT, AUC of glucose): improved glucose tolerance
[1]; day 21 of treatment, FIG. 6A
  blood glucose levels vs saline control group: Significant differences in blood glucose levels
[2]
  stability in culture medium: significantly more stable than INGAP-PP peptide in culture medium
ARIP cells
  percentage increase in cell number (ARIP cell proliferation): significantly higher percentage increase in cell number
